Measured values published in publication PMC10812785, “Structures, Interactions and Activity of the N-Terminal Truncated Variants of Antimicrobial Peptide Thanatin” (Antibiotics, 2024).
Read-outs that look alike come from different tables or passages of the source. Bridge positions count the residues as written; N and C are the ends. Ends that are not written are not given here.

How the values were obtained:
[1] = tested on: Acenobacter baumannii ATCC BAA-1798; assay type: cell-based, A. baumannii
Description: (§1) Chemically synthesized PM15, PM15Y and PM15A peptides were obtained from GLBiochem^TM (Shanghai, China). Molecular weight of the peptides was confirmed by mass spectrometry. Bacterial strains were obtained from the American Type Culture Collection (ATCC, Manassas, VA, USA). Mueller–Hinton (MH) broth was purchased from Sigma-Aldrich^TM (Saint Louis, MO, USA) and Millipore-Sigma^TM (Saint Louis, MO, USA). 1-N-phenylnaphthylamine (NPN) and LPS (E. coli O111:B4) were purchased from Sigma Aldrich^TM.
Bacterial growth inhibition of PM15, PM15A and PM15Y peptides was estimated against a panel of bacterial strains, namely, E. coli ATCC25922, S. enterica ATCC 14028, K. pneumoniae ATCC 13883, A. baumannii ATCC BAA-1798, S. pyogenes ATCC 19615 and E. faecalis ATCC 29212, by using the broth dilution assay determining minimum inhibitory concentration (MIC). Typically, overnight bacterial cultures were grown to mid-log phase at 37 °C and then diluted in Mueller–Hinton (MH) broth to OD600 ~ 0.002. […] Bacterial inhibition was determined by absorbance of 96-well plates at OD600 nm by using a Cytation spectrophotometer (Agilent, Santa Clara, CA, USA). The minimum peptide concentration showing complete inhibition of bacterial growth was determined as the MIC value.

LptAm protein of E. coli = target: T1, LptAm protein of E. coli (Escherichia coli, UniProt P0ADV1); assay: ITC of peptide/LptAm binding; conditions: 50 mM sodium phosphate, 150 mM NaCl, pH 7.0, 25 °C
T1 construct: Expression and purification of LptAm protein (residues 28–159), with a six His-tag (SGRVEHHHHHH) at the C-terminus; made in house; host or cells: E. coli BL21
Method: (§2) ITC experiments were conducted by using a MicroCal ITC 200 calorimeter. Samples, LPS and peptides, were prepared in 10 mM sodium phosphate buffer, pH 7.0. LPS (50 µM) was placed in the sample cell, while the syringe contained 1 mM of peptide. In an individual experiment, 2.0 μL of peptide was titrated, with a total of 20 titrations, into the sample cell containing LPS at 37 °C with stirring speed adjusted to 750 rpm. For ITCs of peptides/LptAm, samples were prepared in 50 mM sodium phosphate buffer, 150 mM NaCl, pH 7.0. 25 μM of LptAm was loaded into the sample cell, whereas 250 μM of PM15 and PM15Y was placed in the syringe. ITC titrations were performed with 20 injections of 2 µL of peptide into sample cells at 25 °C with a stirring speed of 750 rpm. ITC data were analyzed by using a single site binding model in MicroCal Origin 5.0 software to obtain the association constant (Ka) and enthalpy change (ΔH). Other binding parameters, namely, dissociation constant (Kd), Gibbs free energy (ΔG) and entropy change (TΔS), were determined indirectly from thermodynamics equations.
Expression and purification of LptAm protein (residues 28–159), with a six His-tag (SGRVEHHHHHH) at the C-terminus, was carried out by using a previously established method. Briefly, plasmid DNA coding for LptAm gene was transformed into E. coli BL21 competent cells in LB agar plates containing 100 µg/mL of ampicillin. Protein production from expressing E. coli was induced by 1 mM isopropyl β-d-1-thiogalactopyranoside (IPTG) at an OD600 value of 0.6–0.8 at 18 °C for 18 h. The bacteria cells were centrifuged at 6000 rpm, 4 °C for 15 min and resuspended in a lysis buffer (100 mM HEPES, 500 mM NaCl, 10 mM imidazole, pH 8). Bacterial cells were lysed by sonication on ice at 25 Amp for 1 h, the lysate was centrifuged at 18,000 rpm, 4 °C for 30 min to remove cellular debris. The cell supernatant was applied through Ni-NTA (Qiagen, Germantown, TN, USA) beads thrice before washing it with increasing concentrations of imidazole. […]

E. coli cells = assay: Zeta potential of E. coli cells (surface charge neutralization); assay type: cell-based; conditions: 10 mM sodium phosphate buffer, pH 7; peptide 2-32 μM; three replicates of 100 runs; Figure 1A
Method: All zeta potential measurements were performed on a Zeta Sizer Nano ZS (Malvern Instruments, Worcestershire, UK) equipped with a 633 nm He laser using zeta cells with gold electrodes. Typically, E. coli cells at a mid-log culture in LB media were harvested by centrifugation at 5000 rpm for 10 min and resuspended in 10 mM sodium phosphate buffer, pH 7. Zeta potential value of the bacterial cell suspension was determined for the free cells and with subsequent additions of peptide (2 μM to 32 μM). For each concentration, 100 runs were carried out and three replicates were executed.

[2] = ITC of peptide/LPS binding; parameters: species or system E. coli; conditions: 10 mM sodium phosphate, pH 7.0, 37 °C
Description: as §1, §2

bacteria = conditions: cited from earlier work; for antibacterial activity, in words: N-terminal deletion fragment of thanatin
Description: Antimicrobial peptides (AMPs) are found in all life forms and constitute the first line of defense as a part of innate immunity in higher organisms, including humans. As a mode of action, a significant number of cationic AMPs disrupt membrane structures including the LPS–outer membrane of Gram-negative bacteria. Thanatin, a 21-residue antimicrobial peptide, was originally identified from the hemolymph of the spined soldier bug, or Podisus maculiventris. […] Further, to understand residue length-dependent antibacterial activity, here, we investigated a 15-residue N-terminal peptide fragment, or PM15 (PIIYCNRRTGKCQRM), of thanatin. We also examined two analog peptides, PM15Y and PM15A, to replace residue Pro. […] In this study, we have examined 15-residue thanatin-derived peptide, or PM15, and two analogs, PM15Y and PM15A. PM15 and analog peptides are able to exert antibacterial activity against Gram-negative and Gram ...

[3] = tested on: bacterial load from model animals; conditions: ref [29],[30],[31]; cited from earlier work
Description: (§3) Antimicrobial peptides (AMPs) are found in all life forms and constitute the first line of defense as a part of innate immunity in higher organisms, including humans. As a mode of action, a significant number of cationic AMPs disrupt membrane structures including the LPS–outer membrane of Gram-negative bacteria. Thanatin, a 21-residue antimicrobial peptide, was originally identified from the hemolymph of the spined soldier bug, or Podisus maculiventris. Recent studies have discovered and characterized thanatin orthologous AMPs from other speci ...

[4] = tested on: LPS-outer membrane; LptA and LptD; conditions: cited from earlier work
Description: as §3

[5] = target: T2, LptAm, a monomeric functional (truncated) variant of LptA (E. coli, UniProt P0ADV1 28-159); assay: ITC; 250 uM peptide in the syringe titrated into 25 uM LptAm in the cell; 50 mM sodium phosphate, 150 mM NaCl, pH 7.0, 25 °C; single site binding model; apparent Kd; conditions: both partners purified
T2 construct: LptA, periplasmic component of the LPS transport (Lpt) complex, E. coli, residues 28-159; no removal of the His tag is described; source: E. coli BL21, purified (Ni-NTA, size-exclusion chromatography)
T2 sequence (looked up): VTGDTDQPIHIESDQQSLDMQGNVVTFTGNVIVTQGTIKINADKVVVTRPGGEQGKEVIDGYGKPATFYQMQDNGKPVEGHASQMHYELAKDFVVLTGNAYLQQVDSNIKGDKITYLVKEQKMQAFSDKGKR

[6] = 1 mM peptide into 50 μM E. coli LPS (O111:B4), single site binding model
[7] = LPS, determined indirectly from thermodynamics equations

CC[C@H](C)[C@H](NC(=O)[C@@H]1CCCN1)C(=O)N[C@H](C(=O)N[C@@H](Cc1ccc(O)cc1)C(=O)N[C@H]1CSSC[C@@H](C(=O)N[C@@H](CCC(N)=O)C(=O)N[C@@H](CCCNC(=N)N)C(=O)N[C@@H](CCSC)C(=O)O)NC(=O)[C@H](CCCCN)NC(=O)CNC(=O)[C@H]([C@@H](C)O)NC(=O)[C@H](CCCNC(=N)N)NC(=O)[C@H](CCCNC(=N)N)NC(=O)[C@H](CC(N)=O)NC1=O)[C@@H](C)CC [PM15]
MIC [1]: >16 (>16) µM
ΔH (LptAm protein of E. coli; 250 μM peptide into 25 μM LptAm, single site binding model): -2.93 kcal/mol
LptAm binding, in words (LptAm protein of E. coli): bind to LptAm with high affinity
TΔS (LptAm protein of E. coli; LptAm, determined indirectly from thermodynamics equations): 6.23 kcal/mol
change in zeta potential of E. coli cells, in words (E. coli cells): increase in zeta potential in a dose-dependent manner
Kd [2, 6]: 570 nM
ΔH [2, 6]: -7.33 kcal/mol
TΔS [2, 7]: 1.54 kcal/mol
ΔG [2, 7]: -8.87 kcal/mol

VPIIYCNRRTGKCQRM [16-residue fragment, 16-residue fragment (…) of thanatin]
antibacterial activity, in words (bacteria; ref [23],[26],[31],[36]): potent antibacterial activity
antibacterial activity, in words (bacteria; ref [23],[31],[36]): demonstrated antibacterial activity

thanatin: 21-residue antimicrobial peptide from the hemolymph of the spined soldier bug, Podisus maculiventris
clearing bacterial load, in words [3]: promising activity profile
inhibition of outer-membrane biogenesis, in words ([4]; LptA and LptD, LPS transport, ref [33],[34],[35]): inhibits outer-membrane biogenesis by disrupting protein complexes (LptA and LptD)
interaction with LPS-outer membrane, in words ([4]; ref [27],[28],[32]): interacted with the LPS–outer membrane, facilitating the permeabilizing of the OM barrier
killing of Gram-negative bacteria, in words (bacteria; Enterobacteriaceae, including drug-resistant strains, ref [26],[28],[30],[31]): extremely potent in selectively killing Gram-negative bacteria
antimicrobial activity, in words (bacteria; Gram-negative and Gram-positive bacteria and several strains of fungi, ref [23],[26],[27],[28],[29],[30]): broad spectrum of antimicrobial activity

IIYCNRRTGKCQRM [14-residue (IIYCNRRTGKCQRM) fragment, 14-residue (…) fragment of thanatin]
antibacterial activity, in words (bacteria; ref [23],[36]): largely inactive
antibacterial activity, in words (bacteria; ref [23],[36], listed as 14-residue thanatin): inactive peptide

YIIYCNRRTGKCQRM (disulfide 5-12) [PM15Y, P1 to Y substituted variant of PM15]
dH [5]: -11.8 kcal/mol

B1: PM15, 15-residue N-terminal truncated analog of thanatin (peptide)
peptide: PIIYCNRRTGKCQRM
notes: thanatin, Podisus maculiventris (spined soldier bug), the C-terminal 15 residues of the 21-residue peptide (P7-M21 of thanatin); also called 15-residue thanatin peptide; source: synthetic peptide, bought: GLBiochem (Shanghai, China)
Kd [5]: 600 nM
dH [5]: -2.93 kcal/mol
